Assay results taken from PMC2671622 (Journal of Experimental Botany, 2009).

target: truncated recombinant AtGABA-T (no-target GABA-T) (Arabidopsis thaliana, UniProt Q94CE5); assay: coupled SSADH assay, NADH at […] nm; type: biochemical
Sequence (Q94CE5 37-504): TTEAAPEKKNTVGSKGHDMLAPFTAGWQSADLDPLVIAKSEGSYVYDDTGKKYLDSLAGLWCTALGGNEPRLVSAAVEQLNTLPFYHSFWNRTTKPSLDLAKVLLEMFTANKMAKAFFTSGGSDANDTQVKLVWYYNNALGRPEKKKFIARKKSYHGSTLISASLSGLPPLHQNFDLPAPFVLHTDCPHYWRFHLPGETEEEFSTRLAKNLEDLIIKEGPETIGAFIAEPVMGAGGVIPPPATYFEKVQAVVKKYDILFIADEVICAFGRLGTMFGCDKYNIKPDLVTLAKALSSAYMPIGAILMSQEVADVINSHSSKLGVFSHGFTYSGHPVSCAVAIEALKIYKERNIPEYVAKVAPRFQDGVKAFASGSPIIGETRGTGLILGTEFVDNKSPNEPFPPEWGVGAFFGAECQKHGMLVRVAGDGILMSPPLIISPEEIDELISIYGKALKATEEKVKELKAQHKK

Row | SMILES | Ki [µM]
1 | NCC(=O)O [Glycine] | 3700 ± 460
2 | C=CC(N)CCC(=O)O (stereo not shown) [Vigabatrin] | 620 ± 160
3 | NCCC(=O)O [β-Alanine] | 550 ± 130
4 | NCCC[C@H](N)C(=O)O [Ornithine] | 460 ± 120
